Laboratory results taken from patent EP3628659A1, “SELENOESTER-CONTAINING COMPOUNDS FOR USE IN THE TREATMENT OF MICROBIAL INFECTIONS OR COLORECTAL CANCER” (Consejo Superior De Investigaciones Científicas, priority 2018, dated 2020).

Columns and labels:
[1] = tested on: Colo 205 doxorubicin-sensitive; experiment: Cytotoxicity assay (MTT) in Colo 205 cells; assay type: cell-based, human; conditions: Homo sapiens, COLO 205, 24 h, read-out: Colo 205 Cytotoxicity
Procedure: (§1) Cytotoxicity assays in human colonic adenocarcinoma cell lines Colo 205 doxorubicin-sensitive (ATCC-CCL-222) and Colo 320/MDR-LRP multidrug resistant overexpressing ABCB1 (MDR1)-LRP (ATCC-CCL-220.1) were performed following the procedure described by Gajdács et al, 2017, Bioorg Med Chem Lett. 27(4): 797-802. The effects of increasing concentrations of selenium compounds on cell growth were tested in 96-well flat-bottomed microtiter plates. The selectivity of the action towards cancer cells was assessed through the evaluation of cytotoxic activity in a non-tumoral cell line, the MRC-5 human embryonal lung fibroblast cell lines (ATCC CCL-171), as described in Gajdács et al, 2017, Bioorg Med Chem Lett. 27(4): 797-802.
(§2) All cell lines were purchased from LGC Promochem, Teddington, UK. The colonic cells were cultured in RPMI 1640 medium supplemented with 10% heat-inactivated fetal bovine serum, 2 mM L-glutamine, 1 mM Na-pyruvate and 100 mM Hepes. The cell lines were incubated at 37°C, in a 5% CO2, 95% air atmosphere. The semi-adherent human colon cancer cells were detached with Trypsin-Versene (EDTA) solution for 5 min at 37°C. Alternatively, MRC-5 cells was cultured in Eagle's Minimal Essential Medium (EMEM, containing 4.5 g/L glucose) supplemented with a non-essential amino acid mixture, a selection of vitamins and 10% heat-inactivated fetal bovine serum. The cell lines were incubated at 37°C, in a 5% CO2, 95% air atmosphere.
(§3) The compounds were diluted in a volume of 100 µL of medium. The two-fold serial dilutions of selenocompounds were prepared in 100 µL of RPMI 1640, horizontally. The semi-adherent colonic adenocarcinoma cells were treated with Trypsin-Versene (EDTA) solution. They were adjusted to a density of 2×10^4 cells in 100 µL of RPMI 1640 medium, and were added to each well, with the exception of the medium control wells. The final volume of the wells containing selenocompounds and cells was 200 µL.
(§4) The culture plates were incubated at 37°C for 24 h; at the end of the incubation period, 20 µL of MTT (thiazolyl blue tetrazolium bromide, Sigma) solution (from a stock solution of 5 mg/mL) were added to each well. After incubation at 37°C for 4 h, 100 µL of sodium dodecyl sulfate (SDS) (Sigma) solution (10% in 0.01 M HCI) were added to each well and the plates were further incubated at 37°C overnight. Cell growth was determined by measuring the optical density (OD) at 540/630 nm with Multiscan EX ELISA reader (Thermo Labsystems, Cheshire, WA, USA). Inhibition of the cell growth was determined according to the formula below: […] = 100−[(OD sample−OD medium control)/(OD cell control−OD medium control)] × 100 [formula]
(§5) Results are expressed in terms of IC50, defined as the inhibitory dose that reduces the growth of the cells exposed to the tested compounds by 50%. Regarding the selectivity, the selectivity indexes (SI) were calculate, being SI the quotient of the IC50 in non-tumoral cells (MRC-5) and the respective cancer cell (Colo-205 or Colo-320). Compound is considered moderately selective when SI < 6 and ≥ 3; and strongly selective when SI ≥ 6.

[2] = tested on: Colo 320/MDR-LRP multidrug resistant overexpressing ABCB1 (MDR1)-LRP; experiment: cells; assay type: cell-based, human; conditions: Homo sapiens, 24 h, read-out: Colo 320 Cytotoxicity
Procedure: as §1, §2, §3, §4, §5

Candida albicans = experiment: Antifungal activity (optical density), Candida albicans; assay type: cell-based; conditions: IC50 class, tested at 50, 100, 150 and 200 µM, OD 570 nm, 37 °C
Procedure: (§6) The compounds were tested for their antifungal and nematicidal properties against the fungi Candida albicans and Saccharomyces cerevisiae, and against the nematode Steinernema feltiae.
(§7) Fungal cell densities were determined by measuring the optical density (OD) at 570 nm at 0 h (first measurement immediately after incubation), 4 h, and 24 h after incubation at 37 °C; and using a Universal Microplate Reader, EL800, Biotech Instruments, Inc. Highland Park, Winooski, VT, USA. Compounds were dissolved in 1% DMSO and were tested at final concentrations of 50, 100, 150, and 200 µM. Nutrient Sabouraud Dextrose (SD), and Yeast Peptone Dextrose (YPD) were used as media for C. albicans, and S. cerevisiae, respectively. Ketoconazole was used as the positive control for C. albicans and S. cerevisiae. The growth culture with medium for each organism was used as the negative control. The Solvent 1% DMSO stock was used as a solvent control. All experiments were carried out in triplicate and on three different occasions (n = 9).
(§8) For the three organisms considered (C. albicans, S. cerevisiae and S. feltiae), the inhibitory concentration 50% (IC50) is defined as the concentration that inhibits the viability of the respective organism to a 50% of the viability determined for the negative control.

Saccharomyces cerevisiae = experiment: Antifungal activity (optical density), Saccharomyces cerevisiae; assay type: cell-based; conditions: read-out: Antifungal activity Saccharomyces cerevisiae, IC50 class, tested at 50, 100, 150 and 200 µM, OD 570 nm, 37 °C, read-out: Antifungal activity Streptomyces cerevisiae
Procedure: as §6, §7, §8

Steinernema feltiae = experiment: Nematicidal activity (viability count), Steinernema feltiae; assay type: in vivo; conditions: IC50 class, tested at 50, 100, 150 and 200 µM, viability at 24 h
Procedure: as §6
The soil nematodes S. feltiae were purchased from Sautter and Stepper GmbH (Ammerbuch, Germany) and stored at 4 °C in the dark. Before each experiment, fresh samples of nematodes were purchased and stored in the fridge upon arrival and used for a maximum of six days. To perform the assay, 200 mg of nematodes was reconstituted in 50 mL of phosphate buffered saline (PBS) (pH = 7.4) to form a homogenous suspension to revive the nematodes. Afterwards, the individual suspensions were allowed to rest at room temperature. The sedimentation was avoided with occasional shaking in moderate light and at room temperature (25 °C) for 30 min. Viability of the nematodes was determined by counting the live and dead nematodes under a light microscope (TR 200, VWR International, Leuven, Belgium) at four-fold magnification. An initial viability value of more than 90 percent was considered necessary to perform the experiments.
Sample solutions were added into the wells of a 96-well plate to achieve at final concentrations of 50,100, 150, and 200 µM. Afterwards, 10 µL of nematode suspension was added to each well and the final volume in each well was adjusted to 100 µL with phosphate buffered saline (PBS) (pH = 7.4). PBS was used in the negative control and ethanol in the positive control. Viability was determined at 0 h and 24 h by counting the live and dead nematodes, whereby 50 µL of lukewarm water (40 °C) were added to each well to stimulate the nematodes for the 24 h reading. Each experiment was performed independently in triplicate and on three different occasions (n = 9).
as §8

| SMILES | IC50 [1] | IC50 [2] | IC50 (Candida albicans) | IC50 (Saccharomyces cerevisiae) | IC50 (Steinernema feltiae) |
| --- | --- | --- | --- | --- | --- |
| N#CC[Se]C(=O)c1ccc(F)cc1 [Compound 1, Se-(cyanomethyl) 4-fluorobenzoselenoate] | 1 to 10 µM | 1 to 10 µM | 10 to 50 µM | > 100 µM | 50 to 100 µM |
| N#CC[Se]C(=O)c1ccc(Cl)cc1 [Compound 3, Se-(cyanomethyl) 4-chlorobenzoselenoate] | < 1 µM | 1 to 10 µM | 10 to 50 µM | > 100 µM | 10 to 50 µM |
| N#CCC[Se]C(=O)c1ccc(Cl)cc1 [Compound 4, Se-(cyanoethyl) 4-chlorobenzoselenoate] | 1 to 10 µM | 1 to 10 µM | > 100 µM | 50 to 100 µM | 10 to 50 µM |
| N#CCCC[Se]C(=O)c1ccc(Cl)cc1 [Compound 5, Se-(cyanopropyl) 4-chlorobenzoselenoate] | 1 to 10 µM | 1 to 10 µM | 10 to 50 µM | > 100 µM | 1 to 10 µM |
| N#CC[Se]C(=O)c1ccccc1 [Compound 6, Se-(cyanomethyl) benzoselenoate] | 1 to 10 µM | 1 to 10 µM | 10 to 50 µM | > 100 µM | 10 to 50 µM |
| Cc1ccc(C(=O)[Se]CC#N)cc1 [Compound 7, Se-(cyanomethyl) 4-methylbenzoselenoate] | 1 to 10 µM | 1 to 10 µM | 10 to 50 µM | > 100 µM | 1 to 10 µM |
| Cc1ccc(C(=O)[Se]CCC#N)cc1 [Compound 8, Se-(cyanoethyl) 4-methylbenzoselenoate] | 1 to 10 µM | 1 to 10 µM | > 100 µM | 50 to 100 µM | 10 to 50 µM |
| Cc1ccc(C(=O)[Se]CCCC#N)cc1 [Compound 9, Se-(cyanopropyl) 4-methylbenzoselenoate] | 1 to 10 µM | 1 to 10 µM | 50 to 100 µM | > 100 µM | 50 to 100 µM |
| CC(C)(C)c1ccc(C(=O)[Se]CC#N)cc1 [Compound 10, Se-(cyanomethyl) 4-tert-butylbenzoselenoate] | 1 to 10 µM | 1 to 10 µM | 10 to 50 µM | > 100 µM | > 100 µM |
| N#CC[Se]C(=O)Cc1ccccc1 [Compound 11, Se-(cyanomethyl) 2-phenylethaneselenoate] | < 1 µM | < 1 µM | 10 to 50 µM | > 100 µM | 50 to 100 µM |
| N#CC[Se]C(=O)c1ccc(Cl)cc1Cl [Compound 13, Se-(cyanomethyl) 2,4-dichlorobenzoselenoate] | 1 to 10 µM | 1 to 10 µM | 10 to 50 µM | > 100 µM | 10 to 50 µM |
| N#CCC[Se]C(=O)c1ccc(Cl)cc1Cl [Compound 14, Se-(cyanoethyl) 2,4-dichlorobenzoselenoate] | 1 to 10 µM | 1 to 10 µM | > 100 µM | 50 to 100 µM | 10 to 50 µM |
| N#CC[Se]C(=O)c1ccc(Cl)c(Cl)c1 [Compound 15, Se-(cyanomethyl) 3,4-dichlorobenzoselenoate] | 1 to 10 µM | 1 to 10 µM | 10 to 50 µM | > 100 µM | > 100 µM |
| CC(=O)Oc1ccccc1C(=O)[Se]CC#N [Compound 17, Se-(cyanomethyl) 2-acetoxybenzoselenoate] | < 1 µM | 1 to 10 µM | 10 to 50 µM | 10 to 50 µM | 10 to 50 µM |
